Laboratory results from the NIST ThermoML archive (doi:10.1016/j.jct.2004.03.002).
± gives the expanded uncertainty stated by the source.

Columns and labels:
[1] = Crystal
[2] = Molar enthalpy of transition or fusion; details: Crystal
[3] = molar enthalpy of vaporization or sublimation; details: Crystal

| SMILES | Triple point temperature ([1]; DTA) | Triple point temperature ([1]; heat flux calorimetry) | Molar enthalpy of transition or fusion ([2]; DSC) | Molar enthalpy of transition or fusion ([2]; heat flux calorimetry) | molar enthalpy ([3]; 277.3 K) | molar enthalpy ([3]; 278.2 K) | molar enthalpy ([3]; 279.2 K) | molar enthalpy ([3]; 298.15 K) | molar enthalpy ([3]; 297.3 K) | molar enthalpy ([3]; 297.4 K) |
| --- | --- | --- | --- | --- | --- | --- | --- | --- | --- | --- |
| O=C1C=CC(=O)C=C1 [1,4-benzoquinone] | 385.07 ± 0.68 K | 385.65 ± 0.24 K | 4.4 ± 0.108 kcal/mol | 4.39 ± 0.174 kcal/mol | 15.4 ± 0.598 kcal/mol | 15.1 ± 0.598 kcal/mol | 14.9 ± 0.598 kcal/mol | 15.9 ± 0.884 kcal/mol | – | – |
| CC1=C(C)C(=O)C(C)=C(C)C1=O [1,4-benzoquinone, tetramethyl-] | 384.12 ± 0.64 K | 384.84 ± 0.09 K | 4.4 ± 0.105 kcal/mol | 4.431 ± 0.0382 kcal/mol | – | – | – | 22.3 ± 1.05 kcal/mol | 22.3 ± 0.765 kcal/mol | 21.9 ± 0.765 kcal/mol |
